Laboratory results reported in patent US12257243B2, “5-hydroxy-7-oxabicyclo[2.2.1]heptane-2-carboxamide derivatives for inducing chondrogenesis for treating joint damage” (NOVARTIS AG, priority 2018, dated 2025).
pIC50: −log10 of the molar value. Where two headings read alike, the source gives them in different places.

Tested on: ALP in normal human articular chondrocytes (NHACs)
Experiment: Alkaline Phosphatase (ALP) activity assay (staining and quantitation) in NHACs, prevention of chondrocyte hypertrophy
Format: cell-based
Conditions: human IL-1 beta 10 ng/mL, 12 days; for pIC50: Fast Blue RR staining, high content imaging, read-out: ALP in NHAC IC50; for Emax: read-out: ALP in NHAC (% Efficacy)
Description: The compounds of the present invention were evaluated in the Alkaline Phosphatase (ALP) activity assay to determine the ability of the compounds to prevent chondrocyte hypertrophy in normal human articular chondrocytes (NHACs).
Normal human articular chondrocytes (NHACs) were purchased from PromoCell (Heidelberg, Germany) and grown in Chondrocyte Growth Medium (CGM; Lonza, Walkersville, Md.).
NHACs were expanded in Chondrocyte Growth Medium (CGM) from Lonza until they reached a 60-80% confluency. To initiate differentiation, 7,500 cells were plated/well with indicated test compound dose in 384-well Cell Carrier Ultra plates (Perkin Elmer) with DMEM (SH30022—HyClone) containing 10% FBS (35-015-CV—Corning), 1% Pen/Strep antibiotics (SV30010—HyClone), and 1% Normocin (50 mg/mL—InvivoGen). Cells with test compounds were incubated at 37° C., 5% CO2 for 5 hours and then added human IL-1 beta (AF-200-1B—Peprotech) to each well at a final concentration of 10 ng/mL and incubated at 37° C., 5% CO2 for 12 days.
To detect the presence of hypertrophic cells, NHACs were fixed with 4% paraformaldehyde and Hoechst 33342 (Invitrogen) dye for 30 minutes, rinsed in PBS, then stained with Fast Blue RR Salt (F0500—Sigma) with Naphthol AS-MX Phosphate Alkaline Solution, 0.25% (855—Sigma-Aldrich).
The staining was imaged by fluorescent microscopy, using the 561 nm wavelength, and/or quantified by high content imaging with the Image press Confocal (Molecular Devices, Sunnyvale, Calif.). Data analyses were performed with a customized multiwavelength cell-scoring application.

[1] = Chondrocyte, 288 h, value in parentheses

Row | Structure (SMILES) | pIC50 (Chondrocyte, 288 h) | Emax [1] [%] | pIC50 | ALP in NHAC (% Efficacy) (value in parentheses) [%]
1 | O=C(Nc1cccc(C(F)(F)F)c1)[C@@H]1[C@@H](c2cccc(C(F)(F)F)c2)[C@H]2O[C@@H]1C[C@@H]2O (racemic) [Example 10, rac-(1R,2R,3S,4R,5S)-5-hydroxy-N,3-bis(3-(trifluoromethylphenyl)-7-oxabicyclo[2.2.1]heptane-2-carboxamide] | 4.92 | 108 |  | 
2 | Cc1cc(NC(=O)[C@@H]2[C@@H](c3cc(C(F)(F)F)nn3C)[C@H]3O[C@@H]2C[C@@H]3O)cc(C(F)(F)F)c1 (racemic) [Example 71, rac-(1R,2R,3S,4R,5S)-5-hydroxy-3-(1-methyl-3-(trifluoromethyl)-1H-pyrazol-5-yl)-N-(3-methyl-5-(trifluoromethyl)phenyl)-7-oxabicyclo[2.2.1]heptane-2-carboxamide] | < 4.52 | 29 |  | 
3 | Cn1cc([C@H]2[C@H]3O[C@H](C[C@@H]3O)[C@@H]2C(=O)Nc2cccc(C(F)(F)F)c2)c(C(F)(F)F)n1 (racemic) [Example 32, rac-(1R,2R,3S,4R,5S)-5-hydroxy-3-(1-methyl-3-(trifluoromethyl)-1H-pyrazol-4-yl)-N-(3-(trifluoromethyl)phenyl)-7-oxabicyclo[2.2.1]heptane-2-carboxamide] | 5.14 | 78 |  | 
4 | Cn1cc([C@H]2[C@H]3O[C@H](C[C@@H]3O)[C@@H]2C(=O)Nc2cc(C(F)(F)F)ccc2F)c(C(F)(F)F)n1 (racemic) [Example 52, rac-(1R,2R,3S,4R,5S)—N-(2-fluoro-5-(trifluoromethyl)phenyl)-5-hydroxy-3-(1-methyl-3-(trifluoromethyl)-1H-pyrazol-4-yl)-7-oxabicyclo[2.2.1]heptane-2-carboxamide] | 5.38 | 73 |  | 
5 | COc1cc([C@@H]2[C@@H]3O[C@@H](C[C@H]3O)[C@H]2C(=O)Nc2cc(C(F)(F)F)ccc2C#N)ccn1 (single isomer, unassigned) [Example 78a, (1R,2R,3S,4R,5)-N-(2-cyano-5-(trifluoromethyl)phenyl)-5-hydroxy-3-(2-methoxypyridin-4-yl)-7-oxabicyclo[2.2.1]heptane-2-carboxamide or (1S,2S,3R,4S,5R)—N-(2-cyano-5-(trifluoromethyl)phenyl)-5-hydroxy-3-(2-methoxypyridin-4-yl)-7-oxabicyclo[2.2.1]heptane-2-carboxamide] |  |  | 5.96 | 100
6 | O=C(Nc1ccc(F)c(C(F)(F)F)c1)[C@@H]1[C@@H](c2cccc(C(F)(F)F)c2)[C@H]2O[C@@H]1C[C@@H]2O (racemic) [Example 16, rac-(1R,2R,3S,4R,5S)—N-(4-fluoro-3-(trifluoromethyl)phen)-5-hydroxy-3-(3-(trifluoromethyl)phenyl)-7-oxabicyclo[2.2.1]heptane-2-carboxamide] | 4.92 | 105 |  | 
7 | Cn1cc([C@H]2[C@H]3O[C@H](C[C@@H]3O)[C@@H]2C(=O)Nc2cc(C(F)(F)F)ccn2)c(C(F)(F)F)n1 (racemic) [Example 38, rac-(1R,2R,3S,4R,5S)-5-hydroxy-3-(1-methyl-3-(trifluoromethyl)-1H-pyrazol-4-yl)-N-(4-(trifluoromethyl)pyridin-2-yl)-7-oxabicyclo[2.2.1]heptane-2-carboxamide] | 5.44 | 94 |  | 
8 | O=C(Nc1cccc(C(F)(F)F)c1)[C@@H]1[C@@H](c2cncc(C(F)(F)F)c2)[C@H]2O[C@@H]1C[C@@H]2O (racemic) [Example 81, rac-(1R,2R,3S,4R,5S)-5-hydroxy-N-(3-(trifluoromethyl)phenyl)-3-(5-(trifluoromethyl)pyridin-3-yl)-7-oxabicyclo[2.2.1]heptane-2-carboxamide] | 4.72 | 59 |  | 
9 | O=C(Nc1ccc(C(F)(F)F)c(Cl)c1)[C@@H]1[C@@H](c2cccc(C(F)(F)F)c2)[C@H]2O[C@@H]1C[C@@H]2O (racemic) [Example 2, rac-(1R,2R,3S,4R,5S)—N-(3-chloro-4-(trifluoromethylphenyl)-5-hydroxy-3-(3-(trifluoromethyl)phenyl)-7-oxabicyclo[2.2.1]heptane-2-carboxamide] | 5.08 | 102 |  | 
